Like-named read-outs stand apart in the source and are kept apart here.
Experiments:
[1] = NADPH-dependent metabolism (disappearance) of DUT in human liver microsomes; format: in vitro ADME; settings: HLM
Procedure: In vitro metabolism studies in RLM and HLM were conducted as previously reported with slight modifications. To investigate the NADPH-dependent metabolism (via phase I enzymes including CYPs) of DUT in RLM and HLM, the disappearance of DUT at various concentrations ranging from 1 to 100 μM in the presence of NADPH was determined in RLM and HLM. The substrate (DUT) concentration ([S]; μM) versus the initial metabolic rate (V; pmol/min/mg protein) data were interpreted based on the Michaelis–Menten kinetics, and relevant parameters were estimated by nonlinear regression analysis (GraphPad Prism ver. 5.01; GraphPad Software, San Diego, CA, USA) based on the following Michaelis–Menten equation: V = Vmax × [S]/Km + [S] where Vmax and Km are the maximal metabolic rate and Michaelis–Menten constant, respectively. The intrinsic metabolic clearance (CLint) was calculated by dividing Vmax by Km. The unbound Km (Km,u) was calculated as the Km multiplied by the unbound fraction in microsomes (fu,mic). The unbound CLint (CLint,u) was calculated as the CLint divided by the fu,mic.
To investigate the metabolic interaction potential between DUT and KET, the disappearance of DUT (5 μM) in RLM and HLM was determined under the absence and presence of KET at various concentrations ranging from 1 to 5000 nM. A microsomal reaction mixture was prepared as follows (total volume: 0.2 mL): 1 mM NADPH, 10 mM MgCl2, substrate (DUT), and inhibitor (KET), RLM or HLM (1 mg/mL), and 50 mM phosphate buffer. […] The unbound fractions of DUT in rat plasma, RLM, human plasma, and HLM were measured using a rapid equilibrium dialysis (RED) device (Thermo Fisher Scientific, Inc., Waltham, MA, USA) as described in a previous study. […] The fraction unbound was calculated as the ratio of the drug concentrations in the “buffer” chamber to those in the “sample” chamber. The blood-to-plasma concentration ratio (RB) of DUT was determined as described previously. […] The concentrations of DUT in the plasma sample were determined by the validated HPLC analysis.

[2] = In vivo pharmacokinetic study in rats, oral DUT without or with KET; parameters: species or system rat; settings: for AUC(0-t) / Cmax: po, 5 mg/kg
From the text: The animal experiment protocols used in the present study were approved by the Pusan National University-Institutional Animal Care and Use Committee for scientific care and ethical procedures (Busan, Korea; approval date: 01/05/2018; approval number: PNU-2018-1848). Male Sprague–Dawley rats (8-week-old; approximately 250 g) were purchased from DBL Co., Ltd. (Incheon, Korea). The rats were acclimatized in a clean room of the Laboratory Animal Center of Pusan National University (Busan, Korea) for 1 week. Then, they were fasted for 12 h prior to the pharmacokinetic experiment and then anesthetized by intramuscular injection of Zoletil at a dose of 20 mg/kg. The femoral vein and artery of the rats were cannulated with a polyethylene tube (BD Medical; Franklin Lakes, NJ, USA). At approximately 4–6 h after the surgery for cannulation, an intravenous dose of DUT (2.5 mg/kg) simultaneously with or without intravenous KET ([…]) was administered to the rats. Drugs were dissolved in a vehicle consisting of dimethyl sulfoxide, ethanol, and polyethylene glycol 400 at a ratio of 10:5:85 (v/v/v). Blood (approximately 200 μL) was collected in heparin pre-treated microcentrifuge tubes via the femoral artery at 0, 1, 5, 15, 30, 60, 120, 180, 240, 360, 480, and 1200 min after the intravenous dose and at 0, 5, 15, 30, 60, 120, 150, 180, 240, 360, 480, and 1200 min after the oral dose. Following centrifugation of the blood samples at 3000× g at 4 °C for 10 min [19], 100 μL aliquots of plasma were stored at −80 °C.
The half maximal inhibitory concentration (IC50) of KET for the inhibition of the DUT metabolism was determined by the nonlinear regression analysis (GraphPad Prism ver. 5.01; GraphPad Software Inc., San Diego, CA, USA) based on the following Hill equation: y = Min + Max−Min/1 + (x/IC50)^-P where Max and Min are the initial and final y value, respectively, and the exponent P represents the Hill coefficient. Peak plasma concentration (Cmax) and time to reach Cmax (Tmax) were read directly from the observed data. Non-compartmental analysis was conducted to estimate pharmacokinetic parameters such as total area under plasma concentration versus time curve from time zero to time of last sampling (AUClast), total area under plasma concentration versus time curve from time zero to infinity (AUCinf), total plasma clearance (CL), volume of distribution at steady state (Vss), and terminal half-life (t1/2) using the NCA200 and 201 models of WinNonlin ver. 3.1 (Certara USA Inc., Princeton, NJ, USA).

[3] = male, Sprague-Dawley, rat, plasma, oral DUT 5 mg/kg with oral KET (20 mg/kg), n = 4
[4] = male, Sprague-Dawley, rat, plasma, oral DUT 5 mg/kg, DUT alone, n = 4

For `C[C@]12C=CC(=O)N[C@@H]1CC[C@@H]1[C@@H]2CC[C@]2(C)[C@@H](C(=O)Nc3cc(C(F)(F)F)ccc3C(F)(F)F)CC[C@@H]12` [DUT, Dutasteride], which Vmax ([1]; DUT 1 to 100 μM, NADPH) is on record?
The Vmax was 47.7 ± 6.3 pmol/min/mg protein.

And the Km ([1]; human, human liver microsomes, DUT 1 to 100 μM, NADPH)?
The Km was 51.6 ± 7.3 µM.

And the microsomal CLint ([1]; human, human liver microsomes, Vmax divided by Km)?
Its microsomal CLint is 0.928 ± 0.069 µL/min/mg.

What about the concentration at 30 min ([2]; male, Sprague-Dawley, rat, plasma sample collected at 30 min after oral DUT 5 mg/kg, representative chromatogram) of the same compound?
Its concentration at 30 min is 276 ng/mL.

What about the Tmax ([2]; male, Sprague-Dawley, rat, plasma, oral DUT 5 mg/kg, DUT alone, median (range), n = 4, read-out: Tmax (converted)) of the same compound?
Its Tmax is 1 h.

What about the AUC(0-t) [2, 3] of the same compound?
Its AUC(0-t) is 6470 ng·h/mL.

What about the Cmax [2, 3] of the same compound?
Its Cmax is 419 ± 27 ng/mL.

What about the AUC(0-t) [2, 4] of the same compound?
The AUC(0-t) was 4580 ng·h/mL.

What about the Cmax [2, 4] of the same compound?
The Cmax was 289 ± 10 ng/mL.

And the Tmax ([2]; oral DUT 5 mg/kg with oral KET (20 mg/kg), median, n = 4)?
The Tmax was 1 h.

Source: article PMC6956158, “In Vitro and In Vivo Assessment of Metabolic Drug Interaction Potential of Dutasteride with Ketoconazole” (Pharmaceutics, 2019)
